Experimental data published in ChEMBL document CHEMBL1201862, “PubChem BioAssay data set” (2004).
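Grown in 96-well plates, cells were treated for 48 hours with each compound at five concentrations. Insufficient inhibition: endpoint recorded as highest concentration tested. Abbreviation: GI50, concentration required for 50% inhibition of growth.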 Activity calls are given as the source filed them. Rule as the data show it: active = GI50 up to about 1.1 µM and inactive = higher.

Tests used:
Test in all cases: DTP human tumour cell line panel, 48 h
[1] = system: LOX IMVI
[2] = system: ACHN
[3] = system: SF-268
[4] = system: HCT-116
[5] = system: MDA-N
[6] = system: OVCAR-5
[7] = system: A498
[8] = system: 786-0
[9] = system: NCI/ADR-RES
[10] = system: U-251
[11] = system: SF-295
[12] = system: SF-539
[13] = system: A549
[14] = system: TK-10
[15] = system: MCF7
[16] = system: MDA-MB-231
[17] = system: OVCAR-3
[18] = system: NCI-H460
[19] = system: Hs-578T
[20] = system: MOLT-4
[21] = system: SN12C
[22] = system: IGROV-1
[23] = system: NCI-H23
[24] = system: KM12
[25] = system: HCC 2998
[26] = system: HCT-15
[27] = system: SK-OV-3
[28] = system: SK-MEL-2
[29] = system: SNB-75
[30] = system: CCRF-CEM
[31] = system: COLO 205
[32] = system: PC-3
[33] = system: DU-145
[34] = system: UACC-257
[35] = system: RXF 393
[36] = system: T47D
[37] = system: CAKI-1
[38] = system: SNB-19
[39] = system: M14
[40] = system: UO-31
[41] = system: NCI-H226
[42] = system: HOP-92
[43] = system: K562
[44] = system: SW-620
[45] = system: OVCAR-8
[46] = system: MDA-MB-435
[47] = system: Malme-3M
[48] = system: HT-29
[49] = system: RPMI-8226
[50] = system: OVCAR-4
[51] = system: SK-MEL-5
[52] = system: HOP-62
[53] = system: EKVX
[54] = system: HL-60
[55] = system: UACC-62
[56] = system: SK-MEL-28

CC(=O)OCC1OC(N2C(c3ccccc3)=CC(c3cccs3)C(C#N)=C2S)C(OC(C)=O)C(OC(C)=O)C1OC(C)=O (stereo not given) was tested, and the GI50 [1] was > 100 µM (inactive), the GI50 [2] was > 100 µM (inactive) and the GI50 [3] was 4.49 µM (inactive). For the same molecule, the GI50 [4] was 2.25 µM (inactive), the GI50 [5] was > 100 µM (inactive) and the GI50 [6] was 4.92 µM (inactive). The GI50 [7] was 10.5 µM (inactive), the GI50 [8] was 2.55 µM (inactive) and the GI50 [9] was > 100 µM (inactive). For the same molecule, the GI50 [10] was 10.3 µM (inactive), the GI50 [11] was > 100 µM (inactive) and the GI50 [12] was 2.34 µM (inactive). For the same molecule, the GI50 [13] was > 100 µM (inactive), the GI50 [14] was > 100 µM (inactive) and the GI50 [15] was > 100 µM (inactive). The GI50 [16] was 6.03 µM (inactive), the GI50 [17] was > 100 µM (inactive) and the GI50 [18] was > 100 µM (inactive). For the same molecule, the GI50 [19] was 2.47 µM (inactive), the GI50 [20] was > 100 µM (inactive) and the GI50 [21] was > 100 µM (inactive). The GI50 [22] was > 100 µM (inactive), the GI50 [23] was 5.18 µM (inactive) and the GI50 [24] was > 100 µM (inactive). For the same molecule, the GI50 [25] was > 100 µM (inactive), the GI50 [26] was over 100 µM and the GI50 [27] was > 100 µM (inactive). For the same molecule, the GI50 [28] was > 100 µM (inactive), the GI50 [29] was 4.43 µM (inactive) and the GI50 [30] was > 100 µM (inactive). For the same molecule, the GI50 [31] was > 100 µM (inactive), the GI50 [32] was > 100 µM (inactive) and the GI50 [33] was > 100 µM (inactive). The GI50 [34] was > 100 µM (inactive), the GI50 [35] was 3.43 µM (inactive) and the GI50 [36] was > 100 µM (inactive). For the same molecule, the GI50 [37] was > 100 µM (inactive), the GI50 [38] was 47.3 µM (inactive) and the GI50 [39] was 1.84 µM (inactive). The GI50 [40] was > 100 µM (inactive).

CCCCCCCCCCCCc1ccc(S(=O)(=O)O)cc1 was tested, and the GI50 [1] was 49.5 µM (inactive), the GI50 [2] was > 100 µM (inactive) and the GI50 [3] was > 100 µM (inactive). The GI50 [4] was > 100 µM (inactive), the GI50 [5] was > 100 µM (inactive) and the GI50 [41] was 90.6 µM (inactive). The GI50 [6] was > 100 µM (inactive), the GI50 [42] was 88.1 µM (inactive) and the GI50 [7] was 26.8 µM (inactive). The GI50 [8] was > 100 µM (inactive), the GI50 [9] was > 100 µM (inactive) and the GI50 [43] was > 100 µM (inactive). The GI50 [10] was 89.7 µM (inactive), the GI50 [44] was > 100 µM (inactive) and the GI50 [11] was > 100 µM (inactive). For the same molecule, the GI50 [12] was > 100 µM (inactive), the GI50 [13] was > 100 µM (inactive) and the GI50 [14] was > 100 µM (inactive). The GI50 [15] was 98.9 µM (inactive), the GI50 [45] was > 100 µM (inactive) and the GI50 [16] was > 100 µM (inactive). The GI50 [17] was > 100 µM (inactive), the GI50 [46] was > 100 µM (inactive) and the GI50 [47] was > 100 µM (inactive). For the same molecule, the GI50 [48] was > 100 µM (inactive), the GI50 [18] was > 100 µM (inactive) and the GI50 [19] was > 100 µM (inactive). For the same molecule, the GI50 [20] was > 100 µM (inactive), the GI50 [21] was > 100 µM (inactive) and the GI50 [22] was 11.5 µM (inactive). The GI50 [23] was > 100 µM (inactive), the GI50 [24] was > 100 µM (inactive) and the GI50 [25] was > 100 µM (inactive). For the same molecule, the GI50 [26] was over 100 µM, the GI50 [27] was > 100 µM (inactive) and the GI50 [49] was > 100 µM (inactive). The GI50 [50] was > 100 µM (inactive), the GI50 [29] was > 100 µM (inactive) and the GI50 [30] was > 100 µM (inactive). For the same molecule, the GI50 [51] was > 100 µM (inactive), the GI50 [31] was > 100 µM (inactive) and the GI50 [32] was > 100 µM (inactive). The GI50 [33] was > 100 µM (inactive), the GI50 [34] was 64.6 µM (inactive) and the GI50 [35] was > 100 µM (inactive). For the same molecule, the GI50 [52] was > 100 µM (inactive), the GI50 [53] was > 100 µM (inactive) and the GI50 [54] was > 100 µM (inactive). The GI50 [55] was 34.4 µM (inactive), the GI50 [56] was > 100 µM (inactive) and the GI50 [36] was > 100 µM (inactive). For the same molecule, the GI50 [37] was > 100 µM (inactive), the GI50 [38] was > 100 µM (inactive) and the GI50 [39] was > 100 µM (inactive). For the same molecule, the GI50 [40] was > 100 µM (inactive).
